According to patent US12122779B2, “Pyrrolo-pyridazine derivatives as muscarinic M1 receptor positive allosteric modulators” (SUVEN LIFE SCIENCES LIMITED, priority 2018, dated 2024):

Legend:
[1] = Rodent pharmacokinetic study; type: in vivo, Male Wistar rats; conditions: male, Wistar, plasma, rat; for bioavailability: oral 3 mg/kg vs intravenous 1 mg/kg, read-out: F (%) Bioavailability
Description: Rodent Pharmacokinetic Study
Male Wistar rats (260±50 grams) were used as experimental animals. Animals were housed individually in polypropylene cage. Two days prior to study, male Wistar rats were anesthetized with isoflurane for surgical placement of jugular vein catheter. Rats were randomly divided for oral (3 mg/kg) and intravenous (1 mg/kg) dosing (n=3/group) and fasted overnight before oral dosing (p.o.). However, rats allocated to intravenous dosing food and water was provided ad libitum.
At pre-determined point, blood was collected through jugular vein and replenished with an equivalent volume of normal saline. Collected blood was transferred into a labeled eppendorf tube containing 10 μL of heparin as an anticoagulant. Typically blood samples were collected at following time points: 0.08, 0.25, 0.5, 1, 2, 4, 6, 8, and 24 h post dose. Blood was centrifuged at 4000 rpm for 10 minutes. Plasma was separated and stored frozen at −80° C. until analysis. The concentrations of the test compounds were quantified in plasma by qualified LC-MS/MS method using suitable extraction technique. The test compounds were quantified in the calibration range around 1-1000 ng/mL in plasma. Study samples were analyzed using calibration samples in the batch and quality control samples spread across the batch.
Pharmacokinetic parameters Cmax, AUCt, T1/2, Clearance and Bioavailability (F) were calculated by non-compartmental model using standard non-compartmental model by using Phoenix WinNonlin 6.0.4 version Software package.

[2] = target: T1, recombinant human Muscarinic M1 receptor (Homo sapiens, UniProt P11229); test: Allosteric potency EC50 for muscarinic M1 receptor, CHO pCRE-Luc reporter cell-based assay with EC20 of acetylcholine; conditions: CHO cells, luciferase activity, in presence of EC20 of acetylcholine, 4 hours
T1 sequence (P11229 1-460): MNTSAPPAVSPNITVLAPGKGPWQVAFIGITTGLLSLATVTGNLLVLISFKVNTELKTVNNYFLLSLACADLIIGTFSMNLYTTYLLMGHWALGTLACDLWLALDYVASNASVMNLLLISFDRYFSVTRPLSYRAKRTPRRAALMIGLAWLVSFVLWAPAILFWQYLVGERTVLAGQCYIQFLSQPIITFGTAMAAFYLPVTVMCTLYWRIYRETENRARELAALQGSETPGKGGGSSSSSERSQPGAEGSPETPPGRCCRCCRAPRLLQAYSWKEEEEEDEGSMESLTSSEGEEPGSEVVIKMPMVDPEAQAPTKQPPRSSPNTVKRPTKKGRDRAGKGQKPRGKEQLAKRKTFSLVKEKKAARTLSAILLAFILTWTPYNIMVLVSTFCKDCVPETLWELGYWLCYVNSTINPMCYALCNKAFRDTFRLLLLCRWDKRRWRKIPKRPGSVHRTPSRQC
Description: Determination of Allosteric Potency EC50 Values for Muscarinic M1 Receptor
A stable CHO cell line expressing recombinant human Muscarinic M1 receptor and pCRE-Luc reporter system was used for cell-based assay. The assay offers a non-radioactive based approach to determine binding of a compound to GPCRs. In this specific assay, the level of intracellular cyclic AMP which is modulated by activation or inhibition of the receptor is measured. The recombinant cells harbor luciferase reporter gene under the control of cyclic AMP response element.
The above cells were grown in 96 well clear bottom white plates in Hams F12 medium containing 10% fetal bovine serum (FBS). Prior to the addition of compounds or standard agonist, cells were serum starved overnight. Increasing concentrations of test compounds were added along with EC20 of acetylcholine in OptiMEM medium to the cells. The incubation was continued at 37° C. in CO2 incubator for 4 hours. Medium was removed and cells were washed with phosphate buffered saline. The cells were lysed and luciferase activity was measured in a Luminometer. Luminescence units were plotted against the compound concentrations using Graphpad software.

Male Swiss mice = test: Effect on colonic transit; type: in vivo; conditions: doses of 1 and 3 mg/kg, p.o., carmine dye, 3 hours after dye
Description: Effect on Colonic Transit
Male Swiss mice of body weight ˜20-30 g were fasted for 16 hours with free access to water prior to the experiment. Mice were administrated example 1 or vehicle, 30 min after administration of 0.5 ml of carmine dye solution. Mice were sacrificed 3 hours after dye administration and the distance traveled by the dye from proximal colon was measured. Colonic transit was expressed as % colonic transit=100×(length of colon in which carmine moved/total length of colon).

[3] = Rodent brain penetration study; type: in vivo, Male Wistar rats; conditions: male, Wistar, brain and plasma, po; rat, 3 mg/kg p.o., brain-plasma ratio; read-out: Single dose Rat Brain Penetration (Cb/Cp) at 3 mg/kg, p.o.
Description: Rodent Brain Penetration Study
Male Wistar rats (260±40 grams) were used as experimental animals. Three animals were housed in each cage. Animals were given water and food ad libitum throughout the experiment and maintained on a 12 h light/dark cycle.
Brain penetration was determined in discrete manner in rats. One day prior to dosing day, male Wistar rats were acclimatized and randomly grouped according to their weight. At each time point (0.50, 1 and 2 h) n=3 animals were used.
The test compounds were suitably preformulated and administered orally at (free base equivalent) 3 mg/kg. Blood samples were removed via cardiac puncture by using isoflurane anesthesia. The animals were sacrificed to collect brain tissue. Plasma was separated and brain samples were homogenized and stored frozen at −20° C. until analysis. The concentrations of the test compounds in plasma and brain were determined using LC-MS/MS method.
The test compounds were quantified in plasma and brain homogenate by qualified LC-MS/MS method using suitable extraction technique. The test compounds were quantified in the calibration range of 1-500 ng/mL in plasma and brain homogenate. Study samples were analyzed using calibration samples in the batch and quality control samples spread across the batch. Extent of brain-plasma ratio (Cb/Cp) was calculated.

Male Wistar rats [4] = test: Object recognition task model; type: in vivo; conditions: rat, 3 mg/kg, p.o.
Description: Object Recognition Task Model
(§1) Male Wistar rats (8-10 weeks old) were used as experimental animals. Four animals were housed in each cage. Animals were kept on 20% food deprivation from a day prior to experimentation. Water was provided ad libitum throughout the experiment. Animals were maintained on a 12 h light/dark cycle in temperature and humidity controlled room. The experiment was carried out in a circular or square arena made up of acrylic. Rats were habituated to individual arenas for up to 1 hour in the absence of any objects on day 1.
One group of 12 rats received vehicle and another set of animals received test compounds, before familiar (T1) and choice (T2) trials. During the familiarization phase, (T1), the rats were placed individually in the arena for 3 minutes, in which two identical objects (a1 and a2) were positioned 10 cm from the wall. 24 h after T1, trial for long-term memory test was performed. The same rats were placed in the same arena as they were placed in T1 trial. During the choice phase (T2) rats were allowed to explore the arena for 3 minutes in presence of a copy of familiar object (a3) and one novel object (b). During the T1 and T2 trial, explorations of each object (defined as sniffing, licking, chewing or having moving vibrissae whilst directing the nose towards the object at a distance of less than 1 cm) were recorded using stopwatch. • T1 is the total time spent exploring the familiar objects (a1+a2). • T2 is the total time spent exploring the familiar object and novel object (a3+b).
The object recognition test was performed as described in Behav. Brain Res., 1988, 31, 47-59.

Male Wistar rats [5] = test: Object recognition task model (combination study with donepezil); type: in vivo; conditions: rat, combination of sub efficacious doses with donepezil (FIG. 1)
Description: Object Recognition Task Model (Combination Study)
The cognition enhancing properties of compounds of this invention were estimated by using this model.
as §1, with “an open field” for “a circular or square arena”, “arenas (open field)” for “arenas”, “20 minutes” for “up to 1 hour”, “1. […]” for “1.”
The same rats were placed in the same arena as they were placed in T1 trial. […] During the T1 and T2 trial, explorations of each object (defined as sniffing, licking, chewing or having moving vibrissae whilst directing the nose towards the object at a distance of less than 1 cm) were recorded using stopwatch. • T1 is the total time spent exploring the familiar objects (a1+a2). • T2 is the total time spent exploring the familiar object and novel object (a3+b). • Discriminative index=Time spent with novel object/(time spent with novel and familiar object). […]

AUC(0-t) ([1]; intravenous (bolus), 1 mg/kg)	clearance ([1]; intravenous (bolus), 1 mg/kg)	half-life ([1]; intravenous (bolus), 1 mg/kg)	bioavailability [1]	AUC(0-t) ([1]; oral (gavage), 3 mg/kg)	Cmax ([1]; oral (gavage), 3 mg/kg)	half-life ([1]; oral (gavage), 3 mg/kg)	EC50 [2]	Kp [3]	Compound	Colonic transit (Male Swiss mice)	Inference (Male Wistar rats [4])	Exploration time mean ± S.E.M, Familiar object (Male Wistar rats [4]; choice trial 24 h after T1)	Exploration time mean ± S.E.M, Novel object (Male Wistar rats [4]; choice trial 24 h after T1)	Procognitive effect in object recognition task (Male Wistar rats [5])
7240 ± 890 ng·h/mL	2.31 ± 0.29 mL/min/kg	3.42 ± 0.29 h	60 ± 4%	13000 ± 954 ng·h/mL	1860 ± 185 ng/mL	3.74 ± 0.15 h	0.692 µM	0.15 ± 0.02	Cn1cc(-c2ccc(Cc3cc(C(=O)N[C@H]4CCOC[C@@H]4O)nn4cccc34)cc2)cn1 (stereo in doubt) [Example 38, N-[3-Hydroxy-tetrahydropyran-4-yl] 4-[4-(1-methyl-1H-pyrazol-4-yl)-benzyl]-pyrrolo[1,2-b]pyridazine-2-carboxamide]	increased the colonic transit	–	–	–	–
677 ± 194 ng·h/mL	24 ± 6 mL/min/kg	0.7 ± 0.1 h	13 ± 1%	259 ± 22 ng·h/mL	113 ± 11 ng/mL	2.5 ± 0.5 h	1.85 µM	1.42 ± 0.1	O=C(N[C@H]1CCCC[C@@H]1O)c1cc(Cc2ccccc2)c2cccn2n1 [Example 4, N-[(1S,2S)-2-Hydroxycyclohexyl]-4-benzyl-pyrrolo[1,2-b]pyridazine-2-carboxamide]	–	Active	16.24 ± 1.09 s	25.9 ± 2.54 s	Procognitive effects were observed
